Test results taken from patent EP4567031A1, “HPK1 INHIBITOR, PREPARATION METHOD THEREFOR, AND USE THEREOF” (Beijing Earthwise Technology Co., Ltd., priority 2022, dated 2024).

What follows are molecules tested on human Pan T cells (assay: Human Pan T cell IL-2 ELISA). Conditions: Homo sapiens, T-cell, 48 h, Anti-CD3 and Anti-CD28, supernatant IL-2 ELISA, read-out: IL-2 release, EC50.
Format: cell-based
Protocol: A compound was dissolved in DMSO to 10 mM, and then diluted three-fold with DMSO to 9 dosages in a 96-well plate. Then, 10 µL of the diluted compound sample was transferred to a 96-well plate with 90 µL of cell culture medium, and the plate was shaken for 5 minutes. Then, 5 µL of the diluted compound sample was transferred to a 96-well plate with 120 µL of cell culture medium, and the plate was shaken for 5 minutes. According to the experimental design diagram, 50 µL of the diluted compound sample was transferred to a cell plate. Final concentrations of the compound in this assay were 10000.00, 5000, 2500, 1250, 625, 312.5, 156.25, 78.125 and 39.063 nM.
The assay was conducted in a 96-well plate. On the first day of the assay, Anti-CD3 was added to the 96-well plate and incubated in a 4 °C refrigerator overnight. On the second day of the assay, human Pan T cells were recovered, centrifuged and counted. The cell density was adjusted to 1*10^6 cells/ml. Then, 100 µL of cells were added to the 96-well plate washed with PBS and added with Anti-CD3; according to the experimental design diagram, 50 µL of diluted Anti-CD28 and 50 µL of the diluted compound were added to each well, centrifuged, and the cell plate was placed and incubated in an incubator for 48 hours; after 48 hours, the plate was centrifuged and the supernatant was collected for IL-2 ELISA.
The signal value of light absorption was converted into a multiple. Multiple = sample value/the average value of control wells. The average value of control wells refers to the value measured in wells with DMSO added. EC50 values were calculated by XLFit (version 5.3.1.3) in Excel. Equation: Y=Bottom + (Top-Bottom) / (1 + (EC50/X) ^ HillSlope). Table 6. Results of cellular activity of the compounds

| Structure (SMILES) | EC50 [nM] |
| --- | --- |
| Cn1ccc2c(-c3cc4c(c5c3CNC5=O)Nc3ccc(N5CCOCC5)cc3C4(C)C)ccnc21 [Example 42] | 14.2 |
| CC1(C)c2cc(N3CCOC(C(C)(C)O)C3)ccc2Nc2c1cc(-c1ccncc1)c1c2C(=O)NC1 (stereo not drawn) [Example 43] | 22.3 |
| CN1CCN(c2ccc3c(c2)C(C)(C)c2cc(-c4cnn5cccnc45)c4c(c2N3)C(=O)NC4)CC1 [Example 44] | 2.47 |
| CNC1CCN(c2ccc3c(c2)C(C)(C)c2cc(-c4cnn5cccnc45)c4c(c2N3)C(=O)NC4)CC1 [Example 45] | 5.28 |
| CC1(C)c2cc(N3CCC(O)CC3)ccc2Nc2c1cc(-c1cnn3cccnc13)c1c2C(=O)NC1 [Example 47] | 4.62 |
| CC1(C)c2cc(N3CCOCC3)ccc2Nc2c1cc(-c1cnc3n1CCCC3)c1c2C(=O)NC1 [Example 48] | 13.5 |
| COCC1(O)CCN(c2ccc3c(c2)C(C)(C)c2cc(-c4cnn5cccnc45)c4c(c2N3)C(=O)NC4)CC1 [Example 49] | 12.7 |
| CC1(C)c2cc(N3CCOC(C(C)(C)O)C3)ccc2Nc2c1cc(-c1cnc3c(Cl)cccn13)c1c2C(=O)NC1 (stereo not drawn) [Example 99] | 5.52 |
| CC1(C)c2cc(N3CCOC(C(C)(C)O)C3)ccc2Nc2c1cc(-c1cnc3cc(Cl)ccn13)c1c2C(=O)NC1 (stereo not drawn) [Example 100] | 13.1 |
| CC1(C)c2cc(N3CCOC(C(C)(C)O)C3)ccc2Nc2c1cc(-c1cnc3cc(C#N)ccn13)c1c2C(=O)NC1 (stereo not drawn) [Example 101] | 5.58 |
| COC1CCCn2c(-c3cc4c(c5c3CNC5=O)Nc3ccc(N5CCOC(C(C)(C)O)C5)cc3C4(C)C)cnc21 (stereo not drawn) [Example 102] | 10.8 |
| CC1CCCn2c(-c3cc4c(c5c3CNC5=O)Nc3ccc(N5CCOC(C(C)(C)O)C5)cc3C4(C)C)cnc21 (stereo not drawn) [Example 103] | 10.4 |
| Cc1c(-c2cc3c(c4c2CNC4=O)Nc2ccc(N4CCOC(C(C)(C)O)C4)cc2C3(C)C)cnc2c1NCCO2 (stereo not drawn) [Example 104] | 6.44 |
| Cn1c(-c2cc3c(c4c2CNC4=O)Nc2ccc(N4CCOC(C(C)(C)O)C4)cc2C3(C)C)cnc1C1CC1 (stereo not drawn) [Example 105] | 11.6 |
| CC1(C)c2cc(N3CCOC(CO)C3)ccc2Nc2c1cc(-c1cnc3cc(F)ccn13)c1c2C(=O)NC1 (stereo not drawn) [Example 108] | 5.58 |
| CC1(C)c2cc(N3CCOC(C(C)(C)O)C3)ccc2Nc2c1cc(-c1cnn3cc(F)ccc13)c1c2C(=O)NC1 (stereo not drawn) [Example 109] | 9.18 |
| COc1ccn2c(-c3cc4c(c5c3CNC5=O)Nc3ccc(N5CCOC(C(C)(C)O)C5)cc3C4(C)C)cnc2c1 (stereo not drawn) [Example 110] | 15.9 |
| CC1(C)c2cc(N3CCOC(C(C)(C)O)C3)ccc2Nc2c1cc(-c1cncc3c1OCCN3)c1c2C(=O)NC1 (stereo not drawn) [Example 111] | 30.8 |
| CC1(C)c2cc(N3CCOC(C(C)(C)O)C3)ccc2Nc2c1cc(-c1cnc3cnccn13)c1c2C(=O)NC1 (stereo not drawn) [Example 112] | 4.67 |
| CC1(C)c2cc(N3CCOC(C(C)(C)O)C3)ccc2Nc2c1cc(-c1cnc3cc(C(F)F)ccn13)c1c2C(=O)NC1 (stereo not drawn) [Example 113] | 14 |
| COc1nccn2c(-c3cc4c(c5c3CNC5=O)Nc3ccc(N5CCOC(C(C)(C)O)C5)cc3C4(C)C)cnc12 (stereo not drawn) [Example 114] | 10.9 |
| CC1(C)c2cc(N3CC(CO)OCC3=O)ccc2Nc2c1cc(-c1cnn3cccnc13)c1c2C(=O)NC1 (stereo not drawn) [Example 115] | 91.5 |
| CC1(C)c2cc(-c3cnn4cccnc34)c3c(c2Nc2cc(F)c(N4CCOCC4)c(F)c21)C(=O)NC3 [Example 116] | 65.2 |
| CC1(C)c2cc(N3CCOC(CO)C3)ccc2Nc2c1cc(-c1cnn3cccnc13)c1c2C(=O)NC1 (stereo not drawn) [Example 118] | 7.32 |
| Cn1cnc2c(-c3cc4c(c5c3CNC5=O)Nc3ccc(N5CCOC(C(C)(C)O)C5)cc3C4(C)C)cncc21 (stereo not drawn) [Example 119] | 8.52 |
| CC1(C)c2cc(N3CCOC(C(C)(C)O)C3)ccc2Nc2c1cc(-c1cnn3ccccc13)c1c2C(=O)NC1 (stereo not drawn) [Example 122] | 4.3 |
| CC1(C)c2cc(N3CCOC(C(C)(C)O)C3)ccc2Nc2c1cc(-c1cnc3n1CCCCC3)c1c2C(=O)NC1 (stereo not drawn) [Example 123] | 20.3 |
